This passage reports RP-LC retention time results from the METLIN SMRT retention time set (Domingo-Almenara et al. 2019).

A short description of the data set: gradient 5% acetonitrile 3 min, to 50% in 2 min, to 85% in 15 min, held 3 min, 100 µL/min. Conditions: column: Zorbax Extend-C18 2.1 x 50 mm; eluents: water / acetonitrile, 0.1% formic acid. Put shortly: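 Pure standards were run in mixtures of ~100 molecules by HPLC coupled to a quadrupole time-of-flight mass spectrometer. The column was a Zorbax Extend-C18 (2.1 × 50 mm, 1.8 μm) at 100 μL/min, with water and acetonitrile each containing 0.1% formic acid, in positive and negative ionization mode. Dead and dwell volumes were 40 μL and 900 μL. Retention time was taken from computationally picked adduct peaks, each manually inspected, with data collected over 3 months.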
`COC(=O)C[C@](O)(CCCC(C)(C)O)C(=O)O[C@@H]1C(OC)=C[C@]23CCCN2CCc2cc4c(cc2[C@H]13)OCO4` displayed an RP-LC retention time of 662 s.

As for `Cc1ccnc(NS(=O)(=O)c2ccc(NC(=O)c3ccc4ncsc4c3)cc2)n1`, the RP-LC retention time was found to be 626 s.

`COc1cc(Cl)ccc1C(=O)N1CCc2nc[nH]c2C1` registered an RP-LC retention time of 593 s.

`CCN(C(=O)Cc1c(C(=O)O)c(C)cn1CC)c1cccc(Cl)c1` yielded an RP-LC retention time of 839 s.

Regarding `CCn1c(=O)c(=O)n(CC(=O)N2CCN(c3ccccn3)CC2)c2ccccc21`, the RP-LC retention time came to 563 s.

As to `Nc1nc(SCc2ccccc2Cl)c2ncn(C3OC(CO)C(O)C3O)c2n1` (stereo not given), the RP-LC retention time came out at 672 s.

`COc1ccccc1-n1ccn2cc(-c3ccc4c(c3)OCO4)nc2c1=O` showed an RP-LC retention time of 776 s.

In the case of `CCOC(=O)c1ccc(NC(=O)Cn2cnc3nc(N4CCCC4)ncc3c2=O)cc1`, the RP-LC retention time is 753 s.

`Fc1cccc(-c2noc(Cc3nc(-c4ccccc4Cl)cs3)n2)c1` gave an RP-LC retention time of 1260 s.

As to `COc1ccc(CC(=O)Nc2cc(-c3cccnc3)no2)cc1`, the RP-LC retention time was found to be 708 s.

On to `Cc1ccccc1NS(=O)(=O)c1cc(-c2[nH]ncc2C(=O)N(C)C)oc1C`, for which the RP-LC retention time came to 673 s.

With `CCOC(=O)Cn1c(-c2nnc(C)o2)cc2ccccc21`, the RP-LC retention time is 827 s.

On to `CNC(=O)N1CCC(OC2CCN(Cc3ccccc3)CC2)CC1`, for which the RP-LC retention time was determined as 555 s.

Compound `CCNC(=O)C1CCc2sc(C(=O)N3CCOCC3)cc2C1` (stereo not given) showed an RP-LC retention time of 632 s.

Take `CCOC(=O)c1c(C)[nH]c(C(=O)N2CCC(CC(=O)NC(C)CC)CC2)c1C` (stereo not given): the RP-LC retention time worked out at 715 s.

`COc1ccccc1CCC(=O)Nc1ccc2c(c1)Sc1ncccc1C(=O)N2C`: the RP-LC retention time amounted to 822 s.

Turning to `CCOC(=O)c1c(C)[nH]c(C(=O)N2CCCC(C(=O)NCc3ccccc3C)C2)c1C` (stereo not given), the RP-LC retention time was determined as 814 s.

With `CCS(=O)(=O)Nc1ccc(C2(C(=O)NCc3cccc(C)c3)CCC2)cc1`, the RP-LC retention time stood at 869 s.

`Cc1cccc(CNC(=O)c2cn3cc(C)ccc3n2)c1` gave an RP-LC retention time of 708 s.

`O=C(NC1CCCCCC1)c1nc(-c2ccnc(N3CCCC3)c2)no1` returned an RP-LC retention time of 709 s.

Compound `COc1ccc(OC)c(CNC(=O)C2CCN(Cc3cn(C)c4ccc(OC)cc34)CC2)c1` returned an RP-LC retention time of 682 s.

In turn, `Cc1cccc(OCc2nc(-c3ccc4nnn(C)c4c3)no2)c1` came in with an RP-LC retention time of 985 s.

With `COc1ccc(-c2noc(-c3cn(C)c4ccc(C)cc4c3=O)n2)cc1OC`, the RP-LC retention time worked out at 796 s.

As for `COc1cc(OC)c(NC(=O)C2CCCN(C(=O)c3cc(C)cc(C)c3)C2)cc1Cl` (stereo not given), the RP-LC retention time was 1010 s.

Take `CCc1cc(=O)n(CC(=O)NCc2ccccc2OC)c(N)n1`: the RP-LC retention time turned out to be 602 s.

Consider `O=C1c2ccccc2C(=O)N1CCn1ncccc1=O`, for which the RP-LC retention time was 603 s.

In turn, `CCOC(=O)c1sc(NC(=O)c2ccc([N+](=O)[O-])cc2)nc1-c1ccccc1` yielded an RP-LC retention time of 1140 s.

`Cc1ccn2cc(C(=O)NCCc3ccc(S(N)(=O)=O)cc3)nc2c1` registered an RP-LC retention time of 551 s.

For `Cc1cccc(-c2noc(-c3nc(C)no3)n2)c1`, the RP-LC retention time is 1050 s.

As to `O=C(NC1CCCCCC1)C1CCN(Cc2cc3ccccc3n2Cc2cccc(F)c2)CC1`, the RP-LC retention time was found to be 848 s.

`Cc1sc2cc(C(=O)N3CCN(c4ccccc4)CC3)[nH]c2c1CN1CCOCC1` returned an RP-LC retention time of 710 s.

The compound `CCc1noc(CC2CCOC3(CCN(S(=O)(=O)c4c(C)cc(C)cc4C)CC3)C2)n1` (stereo not given) had an RP-LC retention time of 1190 s.

The compound `Cc1cc(N2CCN(C(=O)Nc3cccc(C(F)(F)F)c3)CC2)nc(N2CCCCC2)n1` returned an RP-LC retention time of 789 s.

Turning to `CCN1C(=O)c2cccc3c(NC(=O)Cc4ccc(S(C)(=O)=O)cc4)ccc1c23`, the RP-LC retention time stood at 657 s.

For the compound `COc1ccc(NC(=O)CSc2ccc(-c3cccs3)nn2)c(OC)c1`, the RP-LC retention time stood at 890 s.

`O=C(N1CCC(Cc2nc(-c3ccccc3)n[nH]2)C1)C1(c2ccccc2)CC1` (stereo not given) came in with an RP-LC retention time of 755 s.

`O=C(C1=CN(c2cccc(Cl)c2)c2cc(F)ccc2S1(=O)=O)N1CCOCC1` had an RP-LC retention time of 811 s.

In turn, `O=C(CN1CCCCC1c1nc(-c2cccs2)no1)NCc1cccs1` (stereo not given) registered an RP-LC retention time of 996 s.

`COc1ccc(OC)c(Nc2nc(N(C)C)nc3c2cnn3-c2ccccc2)c1` returned an RP-LC retention time of 1380 s.

Take `CCc1nc2c(NC(=O)NCc3ccc(F)cc3)cccn2n1`: the RP-LC retention time amounted to 788 s.

Turning to `C=CCNC(=O)C1COc2ccccc2O1` (stereo not given), the RP-LC retention time is 630 s.

Regarding `CCn1cc(-c2ccc(F)cc2)cc1C(=O)N1CCC(C)CC1`, the RP-LC retention time was found to be 1150 s.

Consider `CCc1cccc(NC(=O)Cc2nnc(-c3cnccn3)o2)c1`, for which the RP-LC retention time is 736 s.

Compound `O=C(Nc1ccc(F)cc1)C1CCN(S(=O)(=O)c2cc(C(=O)N3CCOCC3)cs2)CC1` showed an RP-LC retention time of 755 s.

On to `CCCn1cc(CCNC(=O)c2cc(F)ccc2Cl)c2cccnc21`, for which the RP-LC retention time came out at 795 s.

Take `N#Cc1ccc(Cl)cc1NC(=O)c1ccc(N2CCOCC2)nn1`: the RP-LC retention time was found to be 843 s.

Take `COc1ccccc1C(=O)N1CCCC(c2nnc(C)s2)C1` (stereo not given): the RP-LC retention time came out at 646 s.

Take `CCOc1ccc(S(=O)(=O)N2CCCN(c3ccc(=O)n(-c4ccc(F)cc4)n3)CC2)cc1`: the RP-LC retention time came out at 885 s.

`CCCn1c(CCNC(=O)c2ccc(C)c(C)c2)nc2cccnc21` came in with an RP-LC retention time of 705 s.

`Cc1cc(NC(=O)C2CCN(C(=O)C3(c4cccs4)CCCC3)CC2)no1` displayed an RP-LC retention time of 800 s.

For `Cc1cc(N2CCCC2)n2nc(-c3ccc(Cl)cc3)c(C)c2n1`, the RP-LC retention time is 799 s.

Compound `Cc1ccc(NC(=O)N2CCc3[nH]cnc3C2c2ccncc2)cc1Cl` (stereo not given) displayed an RP-LC retention time of 585 s.

For the compound `COc1ccc(NC(=O)C2CCN(c3nc4ccc(-c5cncnc5)nc4s3)CC2)cc1`, the RP-LC retention time worked out at 860 s.

Regarding `CCN(c1ccccc1)S(=O)(=O)c1cc(-c2[nH]ncc2C(=O)N2CCOCC2)oc1C`, the RP-LC retention time amounted to 718 s.

In the case of `Cn1ncc2c(N3CCSCC3)nc(C(=O)NC3CC3)nc21`, the RP-LC retention time was found to be 670 s.

Take `Cc1nn(-c2nc(-c3ccccc3)cs2)c(C)c1CC(=O)Nc1ccccc1`: the RP-LC retention time is 1130 s.

As to `CC(C)c1ccc(NC(=O)C2CCCN(S(=O)(=O)c3c[nH]c(C(=O)N4CCCC4)c3)C2)cc1` (stereo not given), the RP-LC retention time was 939 s.

Consider `Cc1ccccc1Cn1nc2c(S(=O)(=O)N3CCOCC3)cccn2c1=O`, for which the RP-LC retention time was 794 s.

In the case of `CN1C(=O)c2ccccc2Sc2ccc(NC(=O)N3CCN(c4ccccn4)CC3)cc21`, the RP-LC retention time worked out at 645 s.

The compound `COC(=O)c1c(C)c(C(=O)C(C)N(CC2CCCCC2)C(=O)c2ccccc2Cl)c(C)n1C` (stereo not given) returned an RP-LC retention time of 1240 s.

`C=CCc1c(C)c(C#N)c2nc3ccccc3n2c1NCCOCCO` showed an RP-LC retention time of 589 s.

Consider `Cn1cc(C(=O)NCc2cccc(C(F)(F)F)c2)c2cccnc21`, for which the RP-LC retention time is 818 s.

For `O=C(Cc1csc(Nc2cccc(Cl)c2)n1)NCc1cccnc1`, the RP-LC retention time was determined as 575 s.

Turning to `CC(Oc1ccccc1)C(=O)Nc1ccc2c(c1)Sc1ncccc1C(=O)N2C(C)C` (stereo not given), the RP-LC retention time came out at 930 s.

For `CCOC(=O)C1CCN(C(=O)c2ccc3c(c2)N(CC(=O)N2CCCC2)C(=O)CO3)CC1`, the RP-LC retention time came to 678 s.

Compound `COc1cccc(NC(=O)N(C)CC2CCOCC2)c1` registered an RP-LC retention time of 685 s.

The compound `CCCC(=O)Nc1ccc(CCc2nc3ccc(C(=O)NCCC4=CCCCC4)cc3[nH]2)cc1` came in with an RP-LC retention time of 734 s.

`O=C(CN1CCN(C(=O)Nc2ccc(Cl)cc2)CC1=O)NC1CCCCC1`: the RP-LC retention time came out at 724 s.

With `CSc1ncccc1C(=O)N1CCCC1c1nc(-c2ccc(F)cc2F)no1` (stereo not given), the RP-LC retention time came to 907 s.

Compound `CN(C)CCCOc1nn(Cc2ccccc2)c2ccccc12` had an RP-LC retention time of 750 s.

`Cc1ccccc1CNC(=O)C1(C)CCCN(C(=O)Nc2ccc(F)c(Cl)c2)C1` (stereo not given) returned an RP-LC retention time of 1040 s.

For the compound `COC(=O)c1cc(OCC(=O)NCc2ccc3c(c2)OCO3)c2ccccc2n1`, the RP-LC retention time stood at 739 s.

Regarding `COc1ccc(Cl)cc1S(=O)(=O)N1CC(c2nc(-c3ccncc3)nn2C)C1`, the RP-LC retention time was 664 s.

Compound `Cc1cccc(Cn2c(=O)n(CCNC(=O)c3cnccn3)c3ncccc32)c1` displayed an RP-LC retention time of 722 s.

Regarding `Cc1cccc(C(=O)N2CCc3cc(CNC(=O)c4cc(-c5cccs5)[nH]n4)ccc32)c1`, the RP-LC retention time turned out to be 895 s.

`CCOc1ccc(CNC(=O)C2CCCN(c3nn4c(=O)c5c(nc4s3)CCCC5)C2)cc1` (stereo not given) registered an RP-LC retention time of 784 s.

`O=C(NC1CC1)c1ccc(OCC2CCN(C(=O)Cc3ccccc3F)CC2)cc1` showed an RP-LC retention time of 803 s.

The compound `Cc1cc(N2CCN(C)CC2)nc2ccc(NC(=S)NCc3ccc(F)cc3Cl)cc12` gave an RP-LC retention time of 612 s.

In turn, `COC(=O)C1=CN(c2cc(OC)ccc2OC)c2ccc(F)cc2S1(=O)=O` gave an RP-LC retention time of 874 s.

`CCCCOc1ccc(-c2ccc(=O)n(Cc3nc(-c4cc(OC)c(OC)c(OC)c4)no3)n2)cc1` displayed an RP-LC retention time of 1200 s.
